Assay type in all cases: cell-based
Common to all, as to settings: alone

In assay [1] the test system is Diaporthe citri. Put plainly: in vitro-Test with Diaporthe citri.
Assay [2] deals with Cordana musae. Put plainly: in vitro-Test with Cordana musae.
Assay [3] concerns Fusarium culmorum. The assay can be described thus: in vitro-Test with Fusarium culmorum. Here is the method:
Wells of 96-well microtiter plates are filled with 10 μl of a preparation of test compound or compound combination in methanol+emulsifier alkylaryl-polyglycol-ether. Thereafter, the solvent is evaporated in a hood. At the next step, into each well 100 μl of liquid potato dextrose medium is given, that has been amended with an appropriate concentration of spores or mycelium suspension of the test fungus.
With the aid of a photometer the extinction in all wells is measured at the wavelength of 620 nm.
The microtiter plates are incubated at 20° C. and 85% relative humidity. The inhibition of growth is determined again photometrically 3-5 days after the application. Efficacy is calculated in relation to the untreated control, 0% efficacy means fungal growth as high as in untreated control while 100% efficacy means no fungal growth is measured.

The subject of assay [4] is Alternaria alternata. The assay can be described thus: in vitro-Test with Alternaria alternata.
Assay [5] has as its system Colletotrichum coccodes. Put plainly: in vitro-Test with Colletotrichum coccodes.
The test system of assay [6] is Botrytis cinerea. The assay can be described thus: in vitro-Test with Botrytis cinerea.

This is an account of results in patent US20240365785A1, “ACTIVE COMPOUND COMBINATIONS AND FUNGICIDE COMPOSITIONS COMPRISING THOSE” (Bayer Aktiengesellschaft, priority 2021, published 2024).

As to `CCC(=O)Oc1c(OC)ccnc1C(=O)N[C@@H](C)C(=O)O[C@@H](C)[C@@H](C)c1ccccc1C` [(3.017) Metarylpicoxamid, metarylpicoxamid, reference compound], the Efficacy % in assay [1] (2 ppm) came to 89%; in assay [1] (10 ppm) it was 89%; in assay [2] (0.08 ppm), 44%; in assay [3] (0.08 ppm) it was 10%; in assay [3] (2 ppm) it was 0%; in assay [3] (10 ppm) it was 4%. For the same molecule, the Efficacy % is on record as 50% in assay [4] (10 ppm); 19% in assay [5] (0.08 ppm); 26% in assay [5] (0.4 ppm); 0% in assay [6] (0.8 ppm); 20% in assay [6] (10 ppm).

Take `COC(=O)C(O)(Cn1cncn1)c1ccc(Oc2ccc(Cl)cc2)cc1Cl` (centres unmarked) [(I-1), Methyl 2-[2-chloro-4-(4-chlorophenoxy)phenyl]-2-hydroxy-3-(1,2,4-triazol-1-yl)propanoate]: the Efficacy % in assay [1] (0.02 ppm) stood at 0%; in assay [1] (0.1 ppm) it was 0%; in assay [1] (2.5 ppm), 100%; in assay [2] (0.02 ppm) it was 14%; in assay [2] (0.5 ppm) it was 54%; in assay [2] (2.5 ppm), 97%. In addition, the Efficacy % in assay [3] (2.5 ppm) amounted to 25%; in assay [4] (0.02 ppm), 3%; in assay [4] (0.1 ppm), 0%; in assay [4] (0.5 ppm) it was 18%; in assay [5] (0.02 ppm), 0%; in assay [5] (0.1 ppm), 0%. Besides, the values for the Efficacy % in assay [5] (2.5 ppm), in assay [6] (0.02 ppm) and in assay [6] (0.1 ppm) were 91%, 1% and 0%, respectively.
